According to patent US10525148B2, “Systems and methods for preclinical models of metastases” (The Translational Genomics Research Institute, priority 2014, dated 2020):

What was measured:
[1] = system: PDX from CNS metastasis (spine) of lung adenocarcinoma; test: Tumor volume of patient-derived xenograft (lung adenocarcinoma spine metastasis) in NSG mice under treatment (FIG. 7, FIG. 8); assay type: in vivo; conditions: for tumor growth (tumor volume) during treatment: PDX in NSG mice, daily oral gavage for 18 days, SAHA 100 mg/kg, PD0325901 20 mg/kg, vs vehicle
Description: (§1) Immediately after surgical removal, fresh tissue was collected for heterotopic (flank) injection into NSG mice (NOD scid gamma mice—or mice that are on a NOD/ShiLtJ background with severe combined immune deficiency mutation and the IL2 receptor gamma chain deficiency). Excised patient tissue was placed in a culture dish with medium and minced into small pieces, such that minced tissue suspensions could be drawn through a 16-gauge needle. Minced tissues were placed in a conical tube, media was withdrawn, and matrigel was added to the wet tissue in a 1:1 volume ratio. Approximately 200 μl of the matrigel-tissue mixture was injected subcutaneously into the flanks of two to four mice, and tumors were allowed to develop until the tumors achieved a length of 1.0 to 2.0 cm in the longest dimension. Mice were then sacrificed by CO2 asphyxiation, and their flank tumors were immediately excised. Portions of each excised flank tumor were archived as frozen tissue and as paraffin-embedded tissue following formalin fixation. The remainder of each tumor was dispersed in DMEM, processed as described above and passed by injection into the flank of another NSG mouse.
In view of these changes in the patient's molecular profile, a treatment model was created. […] For example, in view of the G12C mutation in the KRAS gene and the additional amplification this same gene found in the subject's exome, a MEK inhibitor (i.e., a pharmaceutical that targets the mitogen-activated kinase kinase enzymes MEK1 and MEK2) was selected. In this experiment, the MEK inhibitor selected was PD0325901. In addition, the detection of the HDAC9 amplification drove the selection of a drug that has been previously shown efficacy of epigenetic therapy in metastatic lung cancer, suberanilohydroxamic acid or SAHA, which is a potent HDAC inhibitor.
After establishing which treatments were to be used in the case study, 15 animals comprising the PDX were divided into three groups. A first group received vehicle only via intraperitoneal injection each day for 18 days. A second group received SAHA (100 mg/kg) via oral gavage each day for 18 days and a third group received PD0325901 (20 mg/kg) each day for 18 days via oral gavage. Both during and after treatment, tumor volume was measured in each of the mice and the data is plotted in FIG. 7.
Additional experiments were conducted to investigate the potential impact of combination drugs. Referring now to FIG. 8, the drug treatment experiments described above were repeated with an additional pharmaceutical composition, 5-Azacytidine, which is a nucleoside analog that is an FDA-approved treatment for some forms of cancer. […]

[2] = system: patient-derived xenograft of lung cancer metastasized to the central nervous system (KRAS mutation); test: Tumor weight of patient-derived xenograft of lung cancer CNS metastasis (FIG. 13); assay type: in vivo, mice; conditions: treatment conditions with MEK inhibitor
Description: as §1, with “Portions of each excised flank tumor were archived as frozen tissue and as paraffin-embedded tissue following formalin fixation. The remainder of each tumor was dispersed in DMEM, processed as described above and passed by injection into the flank of another NSG mouse.” left out
(§2) Referring next to FIGS. 12 and 13, samples from a different patient (i.e., a patient with lung cancer that metastasized to portions the central nervous system) that were analyzed using some aspects of the instant invention. […] As a result of this analysis, it was determined that a MEK inhibitor (e.g., PD0325901) should be employed in the patient-derived xenograft context to assess potential for therapeutic efficacy.

[3] = have been shown; cited from earlier work
ERK phosphorylation = test: Immunohistochemistry with anti-phosphorylated ERK antibody (FIG. 14); assay type: in vivo
Method: FIG. 14 is an immunohistochemistry study of tissue from the patient whose samples were detailed in FIGS. 12 and 13. In this study, an anti-phosphorylated ERK antibody was used to assess ERK phosphorylation in the various treatment conditions.
Sections were mounted onto a glass slide and stained with reagents designed to detect proteins of interest by IHC staining. This allows samples of many or all of the tumor specimens to be stained at one time. IHC staining was performed to determine the presence or absence of specific proteins and was used to validate potential targets discovered by genome-wide experiments (as previously described).
as §2

Compound | tumor volume growth, single agent and combinations with 5-Azacytidine ([1]; 5-Azacytidine 2.0 mg/kg intraperitoneal, combinations compared to SAHA and PD0325901 alone, FIG. 8) | tumor growth (tumor volume) during treatment ([1]; FIG. 7) | rate of tumor growth after treatment stopped ([1]; after day 18, FIG. 7) | gains in tumor weight [2] | blood-brain barrier penetration [3] | ERK phosphorylation 14 days after treatment (ERK phosphorylation; 14 days after treatment) | ERK phosphorylation in the metastasis cells during treatment (ERK phosphorylation; compared to vehicle alone)
Nc1ncn([C@@H]2O[C@H](CO)[C@@H](O)[C@H]2O)c(=O)n1 [5-Azacytidine] | did not serve as an efficacious treatment | – | – | – | – | – | –
O=C(NOC[C@H](O)CO)c1ccc(F)c(F)c1Nc1ccc(I)cc1F [PD0325901] | – | little to no tumor growth | reduced compared to animals in the SAHA and control groups | most reduced gains in tumor weight | blood-brain barrier penetrant | returned to vehicle-treatment levels | reduced ERK phosphorylation
O=C(CCCCCCC(=O)Nc1ccccc1)NO [SAHA, suberanilohydroxamic acid] | – | reduced tumor growth | – | – | blood-brain barrier penetrant | – | –
